According to a melting point compilation (Tetko et al.; mined from patent text by program, amines drawn as free bases though some values may be those of a salt):

Row | melting point [°C] | Structure (SMILES)
1 | 84 to 94 | CC(C)C[C@H](NC(=O)OCc1ccccc1)C(=O)N[C@@H](C(C)C)[C@@H](O)c1c(-c2ccccc2)c1=O
2 | 168 to 169 | CC(=O)c1ccccc1Nc1ccc(O)cc1
3 | 190 to 191 | CCOCc1nc2c(N)nc3cccnc3c2n1Cc1cc(-c2ccc(F)cc2)no1
4 | 97 to 98 | CCc1cc(O)cc(O)c1
5 | 257 to 258 | NS(=O)(=O)c1ccc(-n2nc(C(F)(F)F)c3c2-c2ccccc2CC3)cc1
6 | 100 to 102 | COc1cccc2c(=O)n(-c3ccc(Br)cc3)c(-c3cc(C)c(OCCO)c(C)c3)nc12
7 | 222 to 224 | CCc1nnc2c(NC(C)C)nc3ccccc3n12
8 | 190 to 191 | CCNc1nc2c(C)sc(C(=O)OC)c2n1Cc1ccc(-c2ccccc2C#N)cc1
9 | 138 to 139 | Cc1cc(Br)cnc1CCCCNc1ncc(Cc2ccccc2)c(=O)[nH]1
10 | 57 to 59 | CCCCCCCCCCSC(=O)CS(=O)(=O)Nc1c(C(C)C)cccc1C(C)C
11 | 200 | COc1cccc(-c2cncc(OC3SCC(O)C(O)C3O)c2)c1 (stereo not drawn)
12 | 167 to 169 | C[C@@H](CO)CCC[C@@H](C)[C@H]1C(=O)C[C@H]2[C@@H]3CC=C4C[C@@H](O)CC[C@]4(C)[C@H]3CC[C@]12C
13 | 122 to 123 | Nc1ccc(C(O)c2ccc(Cl)cn2)cc1 (stereo not drawn)
14 | 82 to 83 | CC(O)CNc1c(Br)cnc2ccccc12 (stereo not drawn)
15 | 192 to 195 | CCOC(=O)c1cn(-c2ccc(F)c(NC(C)(C)C)n2)c2c(Br)c(F)c(F)cc2c1=O
16 | 40 to 45 | O=C(Cl)N1CC(Oc2cc(C(F)(F)F)ccc2Cl)C1
17 | 172 to 174 | O=C(Nc1ccccc1O)c1ccc(O)c(Cl)c1
18 | 83 to 85 | CC(=O)NC(=O)OC[C@]1(C)S[C@@H]2[C@H](NC(=O)COc3ccccc3)C(=O)N2[C@H]1C(=O)OCc1ccc([N+](=O)[O-])cc1
19 | 78.2 to 79 | CCCCCCCCCCCCCCCCOCC(O)CN(CC(O)COCC(O)CO)C(=O)CCCCCCCCCCCCCCC (stereo not drawn)
20 | 135 to 136 | Cc1cc(F)ccc1C(=C(C=O)c1nnnn1C)c1ccc(F)cc1C
21 | > 300 | Cc1cc2n(C)c(=O)c3cnccc3n2n1
22 | 174 to 175 | c1ccc(CCn2ncc3c2ncn2nc(-c4ccco4)nc32)cc1
23 | 283 to 285 | Nc1nc2c(ncn2COC(CC(=O)OC23CC4CC(CC(C4)C2)C3)CC(=O)OC23CC4CC(CC(C4)C2)C3)c(=O)[nH]1 (stereo not drawn)
24 | 180 to 182 | Cc1nc(C)n(-c2cc([C@@H]3C[C@H]3c3nc4ccccc4n3C)nc(C3CC3)n2)n1 (relative stereo)

Row | melting point [°C] | Structure (SMILES)
25 | 82.5 to 83 | C=C(c1ccccc1)c1ccc(N2CCCC2)cc1
26 | 128 to 129 | CC(=O)NC(=O)CCc1ccc(OCCc2nc(-c3ccccc3)oc2C)cc1
27 | 153 to 154 | O=C(Oc1ccccc1)OC1CN(C(=O)Oc2ccccc2)CCC1c1ccccc1 (stereo not drawn)
28 | 245 to 247 | CC1C(=O)Nc2c(C(=O)c3ccc(Br)cc3)cccc21 (stereo not drawn)
29 | 129 | Cn1nnc2cc(C(O)c3ccccc3)ccc21 (stereo not drawn)
30 | 222 | Cc1cc(C#N)cc(C(=O)Nc2cccc(Cl)n2)n1
31 | > 250 | N#Cc1cccc(C2=Nc3cc(O)c(-c4ccc(F)cc4)cc3NC(=O)C2)c1
32 | 110 to 113 | CC(C)COP(C)(=O)CC(O)CN1C(=O)c2ccccc2C1=O (stereo not drawn)
33 | 52 to 54 | CN1C(=O)C(c2ccc(OC(F)F)cc2)(c2cccc(OC(F)F)c2)N=C1N (stereo not drawn)
34 | 88 to 90 | CCSc1nc2c(C)ccnc2n1Cc1ccc(-n2cc(Cl)cc2-c2nnn[nH]2)cc1
35 | 243 to 244 | O=C(Nc1ccncc1)c1c(OCC2CC2)ccc2oc3ccccc3c12
36 | 117 to 118 | CCOC(=O)C1CCc2c([nH]c3ccc(C)cc23)C1 (stereo not drawn)
37 | 137 to 138 | N#Cc1ccc(OCc2ccc3c(c2)OCO3)cc1OC(C(=O)O)c1ccccc1C(F)(F)F (racemic)
38 | 239 to 243 | COc1c(C(C)(C)C)cc(COc2cccc(C=C3SC(=S)NC3=O)c2)cc1C(C)(C)C
39 | 226 to 229 | O=C(NS(=O)(=O)c1ccc(Cl)cc1)C1=NN(c2ccc(Cl)cc2)C(c2ccccc2)C1 (stereo not drawn)
40 | 68 to 70 | CN1NC(Oc2cc(F)ccc2[N+](=O)[O-])=CC1C(F)(F)F (stereo not drawn)
41 | 200 to 201 | Cn1ncc(/C=C/C(=O)Nc2ccc(Cc3nn(C)c(=O)o3)cc2)c1-c1ccc(F)cc1
42 | > 230 | CCCCn1c(=O)n(C2OC(CO)C(O)C2O)c2nc(N)[nH]c(=O)c21 (stereo not drawn)
43 | 74 to 75 | CNN(NC)C(=S)Oc1cccnc1C(=O)OC
44 | 74 to 76 | CC(=O)Oc1cccc(-c2c3ccccc3c(Br)c3sc4ccccc4c23)c1
45 | 102 | CCCCC1SCC(C(=O)OC(C)(C)C)N1C(=O)CNC(=O)NCC(C(=O)O)c1ccccc1 (stereo not drawn)
46 | 245 to 247 | c1cnn(Cc2ccc3c(c2)-c2[nH]nc(-c4ccsc4)c2C3)c1
47 | 221 to 224 | COc1ccccc1-c1cccc(-n2cnc3cc(C4=NCCN4)ccc32)c1
48 | 230 | O=C(Nc1ccc2ccc(Cl)nc2n1)c1ccc(Cl)c(Cl)c1

Row | melting point [°C] | Structure (SMILES)
49 | 136 | Cc1cc(-n2ccnc2)c2cccc(OCc3c(Cl)ccc(S(=O)(=O)N4CCC[C@H]4C(=O)N4CCN(c5ccncc5)CC4)c3Cl)c2n1
50 | 219 to 248 | CN1CCN(c2ncccc2OC2CCN(c3ccc(C4CCOCC4)cc3)C2=O)CC1 (stereo not drawn)
51 | 171 to 172 | CC(C)(C)OC(=O)/C=C/c1ccc(C(=C2CCCCCCC2)c2ccc(O)cc2)cc1
52 | 179 to 182 | CC(c1noc(C(F)F)n1)N1C(=O)C2(COc3cc4c(cc32)OCO4)c2c(Cl)cccc21 (stereo not drawn)
53 | 239 to 240 | Fc1ccc(-c2n[nH]cc2-c2ccnc(Nc3ccccc3F)n2)cc1
54 | 179 to 180 | Cc1cccc(/C=C/C(=O)Nc2cccc(NC(=N)c3ccccc3)c2)c1
55 | 234 to 237 | CC1=Nc2c3ccccc3nc(=O)n2C1C (stereo not drawn)
56 | 206 to 208 | Cn1cc(C(=O)NCc2ccc(Cl)cc2)c(=O)c2cc(C#CCO)sc21
57 | 171 to 172 | CC(=O)NCCCCCCOc1ccccc1C(=O)Nc1ccc(C(=O)N2CCCCc3ccccc32)cc1
58 | 164 to 167 | CN(C)CCCOc1ccc2sc(C(=O)Nc3ccccc3N)cc2c1
59 | 205 to 208 | O=C(O)c1cn(C2CC2)c2cc(N3CCN(C(=O)OCCn4cccn4)CC3)c(F)cc2c1=O
60 | 110 to 112 | O=C(O)CS(=O)(=O)Nc1ccc(F)cc1F
61 | 215 | O=C(O)/C=C/c1ccc(N2CCC(=O)CC2)cc1
62 | 124 to 126 | CS(=O)c1ccc(-c2ccc(C=C(Cl)Cl)s2)cc1 (stereo not drawn)
63 | 91 to 92 | CCOC(=O)CCc1cc(O)nn1CC
64 | 184 | Cc1ccc(-c2cncc(OC3SCC(O)C(O)C3O)c2)cc1C (stereo not drawn)
65 | 141 to 142 | CC(C#N)=C1CCN(c2ccc(N3C[C@@H](CNNCC(=O)O)OC3=O)cc2F)CC1
66 | 124 to 126 | Nc1ccc(OCC(=O)OCCOC(=O)COc2ccc(N)cc2)cc1
67 | 255 to 258 | Nc1ccc(S(=O)(=O)c2cc(-c3ccccc3)nc(N3CCCC3)c2)cc1
68 | 110 to 125 | O=C(O)Cc1cccc2c(-c3ccc(Cl)cc3)noc12
69 | 114 to 116 | CCOC(=O)C1CCC2(CCN(S(=O)(=O)c3ccc(C)cc3)c3ccccc3C2)C1=O (stereo not drawn)
70 | 81 | O=C1CSCc2cc(Br)ccc21
71 | 108 to 111 | CC(C(=O)N(C)C)n1cc(I)c(-c2ccccc2)n1 (stereo not drawn)
72 | 174 to 175 | CCOCc1nc2c(N)nc3ccccc3c2n1CC1(O)CCC1

Row | melting point [°C] | Structure (SMILES)
73 | 136 to 137 | CNC(=O)N(O)C(C)C#Cc1ccccc1 (stereo not drawn)
74 | 117 to 118 | CC(=O)c1nn[nH]c1-c1ccccc1
75 | 150 | OC1CSC(Oc2cccc(-c3ncccc3F)c2)C(O)C1O (stereo not drawn)
76 | > 300 | CC(=O)Nc1ccc(-c2c[nH]c(=O)c(C)n2)cc1
77 | 152 to 156 | CCn1cc(C2(c3cccc(-c4cccnc4F)c3)N=C(N)N(C)C2=O)cc1C=O (stereo not drawn)
78 | 104 to 111 | CCN1C(=O)C(C)(C)C(=O)N(C)c2cc(CN(CCn3cc(C)c4occc4c3=O)Cc3cccnc3COC)ccc21
79 | 262 to 263 | CCOP(=O)(Cc1ccc(N(C(=O)c2cc3c(s2)-c2c(SC)sc(C(N)=O)c2CC3)c2ccc(CP(=O)(OCC)OCC)cc2)cc1)OCC
80 | 105 to 108 | CCCCC12CCC3=C(CCc4cc(OC)ccc43)C1CCC2=O (stereo not drawn)
81 | 141 to 143 | Nc1ccc2c(OCc3nc4ccccc4s3)cccc2c1
82 | 113 to 115 | CCSC(C#N)C1=NCCc2cc(OC)c(OC)cc21 (stereo not drawn)
83 | 133 | O=C1O[C@H](O)[C@@H]2[C@H]1[C@@H]1C=C[C@H]2C1
84 | 160 | O=C(c1cccnc1)c1cccc(NC(=O)c2ccn3c2CSC3c2cccnc2)c1 (stereo not drawn)
85 | 155 to 157 | COC(=O)c1cccc(S(N)(=O)=O)c1I
86 | 145 to 150 | O=C(O)c1cn(C2CC2)c2c(F)c(N3CC(CNC(=O)C(F)(F)F)C3)c(F)cc2c1=O
87 | 64 to 110 | Cc1cc(SC2=C(O)CC(CCc3ccco3)(C(C)C)OC2=O)c(C(C)(C)C)cc1CO (stereo not drawn)
88 | 118 to 119 | COc1nc(-c2c(F)cccc2F)nn1-c1ccccc1C(F)(F)F
89 | 87.5 to 90 | CN(C)C(=O)C(C1CCCCC1)n1ccc(-c2ccccc2)n1 (stereo not drawn)
90 | 123 to 125 | Fc1ccc(Oc2ccc(-c3ccn(-c4ncccn4)n3)cc2)cc1
91 | 150 to 151 | COc1cc2c(c(Cl)c1Cl)CCCC2=O
92 | 109 to 110 | CC1(O)CN(c2ccc([N+](=O)[O-])cc2F)C1
93 | 174 to 178 | Cc1ccc2c(=O)n3ccsc3nc2c1
94 | 219 to 221 | Cc1nc(N)c2nc(C)n(CCNC(=O)N3CCOCC3)c2c1C
95 | 223 to 225 | COc1cc(C)c(Cc2cnc(N)nc2N)cc1OC
96 | 160 | Cc1c(SCC(=O)N2CCOC(CN(C)C)C2)ccnc1CSc1nc2ccccc2[nH]1 (stereo not drawn)

Row | Structure (SMILES) | melting point [°C]
97 | NC(=O)c1nc2n(n1)-c1ccc(Cl)cc1C(c1ccccc1)=NC2 | 252 to 254
98 | O=C1NCN(c2ccccc2)C12CCN(CCCn1c(=O)[nH]c3cc(Cl)ccc31)CC2 | 234
